Test results: patent publication US10487307B2, “Culture method for pluripotent stem cells” (FUJIFILM CORPORATION, priority 2013, dated 2019)

Key:
[1] = system: human iPS cells; assay: Cell adhesiveness evaluation 2 (synthetic peptides added to cells seeded on natural vitronectin); format: cell-based; conditions: for adhesion of cells to the natural vitronectin on addition of peptide: 100 μM synthetic polypeptide; for Cell adhesion rate (%): 100 μM synthetic polypeptide in cell suspension, natural vitronectin surface 130 pmol/cm^2, 24 hours, no peptide = 100%, n=3
Description: The polypeptides shown in Table 8 were synthesized by an Fmoc solid-phase synthesis method. A surface onto which natural vitronectin was adsorbed at a concentration of 130 pmol/cm^2 was prepared, and then a cell suspension to which 100 μM of the aforementioned synthetic polypeptides were added was seeded into wells at a ratio of 30,000 cells/well. The number of adhesive cells 24 hours after seeding was calculated in the same manner as in <Cell adhesiveness evaluation 1>, and the results are shown in Table 8. In Table 8, the cell adhesion rate is expressed as a ratio calculated by regarding the cell adhesion rate obtained by using a culture solution not containing the synthetic polypeptides as being 100%. n=3.

[2] = system: human iPS cells ("Tic"); assay: Cell growth property evaluation 1 (different media); format: cell-based; conditions: for Cell growth rate: laminin 20 μg/ml, 72 hours, RCP-11 with Essential 8 = 100%, n=3
Description: Furthermore, for evaluation, human iPS cells (“Tic”) that were retention-cultured as described in <Cell adhesiveness evaluation 1> of reference example were treated with TrypLE Select (Invitrogen) for 5 minutes at 37° C. and separated into a single cell. After being subjected to centrifugation for 2 minutes at 300 rpm, the cells were collected, suspended in each medium, and used for the evaluation in each example. Herein, Y-27362 ((R)-(+)-trans-N-(4-pyridyl)-4-(1-aminoethyl)-cyclohexane carboxamide.2HCl.H2O, an Rho binding kinase inhibitor, Wako Pure Chemical Industries, Ltd.) was added to all of the media at a final concentration of 10 μM.
Each of RCP-11, RCP-5, and recombinant laminin (Human Recombinant Laminin-511: BIOLAMINA AB) as control was added to and suspended in a predetermined buffer (a dialysis buffer used in <GRAVY value and aggregation characteristics> of reference examples for RCP-11 and RCP-5, and PBS for the recombinant laminin) at the final concentration shown in Table 11, thereby preparing polypeptide solutions. The polypeptide solutions were added to the respective wells of a plasma-treated 96-well plate made of polystyrene (BD Falcon) having a plasma-treated cell culture surface and held as they were so as to be adsorbed onto the plate for 2 hours at 37° C. In this way, a peptide-treated 96-well plate having a polypeptide-coated surface was obtained. The iPS cells suspended in the respective media shown in Table 11 were seeded into the respective wells of the obtained peptide-treated 96-well plate at a cell density of 10,000 cells/well. After the cells were cultured for 72 hours, nonadhesive cells were washed off with PBS, and only adhesive cells were immobilized using 4% by mass of paraformaldehyde (Wako Pure Chemical Industries, Ltd.). By using an Attophos (registered trademark) AP Fluorescent Substrate System (Promega Corporation), the ALP activity was calculated, and from the calibration curve, the number of undifferentiated iPS cells having the ALP activity was calculated. In Table 11, the cell adhesion rate is expressed as a ratio calculated by regarding the number of pluripotent stem cells after the culture for 72 hours in a combination of RCP-11 and Essential 8 as being 100%. n=3.
In Table 11, “% by mass” in the concentration of 2-meracptoethanol is a proportion (w/v %) of mass (g) of 2-meracptoethanol per 100 mL of the total volume of the medium at the time of culture.

[3] = system: iPS cells; assay: Cell growth property evaluation 2 (2-mercaptoethanol concentration in Essential 8); format: cell-based, human; conditions: for Cell growth rate: laminin 20 μg/ml, 72 hours
Description: A cell culture surface coated with RCP-11 was prepared in the same manner as in <Cell growth property evaluation 1> of Example 1. iPS cells collected in the same manner as in <Cell growth property evaluation 1> were suspended in the respective media composed as shown in Table 12 and seeded into wells at a cell density of 10,000 cells/well. After the cells were cultured for 72 hours, the number of cells were quantified in the same manner as in <Cell growth property evaluation 1>, and the cell growth properties were evaluated based on a cell growth rate which is a ratio calculated by regarding the number of cells cultured using RPC-11 as being 100%.

[4] = system: iPS cells; assay: Growth evaluation, number of cells after 3 days; format: cell-based, human; conditions: added amount 1.28 μg/cm^2; 5,000 cells/well; sample 1 (RCP-1) = 100%
Description: By adding RCP-1 to RCP-11 and Human Recombinant Laminin-511 as control at the concentration shown in Table 9, samples 1 to 12 were prepared. The samples were seeded into a 96-well plate, onto which each of the polypeptides was adsorbed in the same manner as in <Cell adhesiveness evaluation 1>, at a ratio of 5,000 cells/well and cultured for 3 days in a CO2 incubator at 37° C. The number of cells after 3 days was calculated in the same manner as in <Cell adhesiveness evaluation 1>. In Table 9, the number of cells after 3 days is expressed as a ratio calculated by regarding the number of cells obtained by using the sample 1 as being 100%.

[5] = system: human iPS cells ("Tic"); assay: Cell adhesiveness evaluation 1 (ALP activity of adhesive iPS cells); format: cell-based; conditions: 30,000 cells/well, 24 hours, natural vitronectin (sample 15) = 100%
Description: The cell adhesiveness of human iPS cells (“Tic”: Cell No. JCRB 1331: from National Institute of Biomedical Innovation. [567-0085, 7-6-8 Asagi Saito Ibaraki-City Osaka]) with respect to the aforementioned polypeptides was evaluated in the following manner.
As feeder cells for retaining the human iPS cells, EmbryoMax (registered trademark) (early mouse embryonic fibroblasts: resistant to hygromycin, treated with mitomycin C, derived from C57/BL6, third passage) (Millipore Corporation) was used. By using DMEM (Invitrogen) and a 10% (v/v) fetal bovine serum medium, the feeder cells were cultured for 24 hours and attached to a T25 flask (Corning Incorporated). As a medium for the human iPS cells, the one obtained by adding FGF-2 (Sigma-Aldrich Co, LLC.) to a medium composed as shown in Table 6 at a final concentration of 10 ng/ml was used.
By using the aforementioned medium, the human iPS cells were retained and cultured in a 5% (v/v, the same unit will be used hereinafter) CO2 incubator at 37° C. Except for the day after the seeding of the iPS cells, the medium was replaced every day. The subculture operation was performed by exfoliating the cells by using Dispase II (neutral protease Grade II, Roche) and separating the cells in an appropriate size by a pipetting operation.
The iPS cells cultured as described above were treated with TrypLE Select (Invitrogen) for 5 minutes at 37° C. and separated into a single cell. After being subjected to centrifugation for 2 minutes at 300 rpm, the cells were collected and suspended in TeSR2 (a medium not containing a heterogeneous animal-derived component and a serum component, STEMCELL Technologies.) containing Y-27362 ((R)-(+)-trans-N-(4-pyridyl)-4-(1-aminoethyl)-cyclohexane carboxamide.2HCl.H2O, an Rho binding kinase inhibitor, Wako Pure Chemical Industries, Ltd.) at a final concentration of 10 μM.
Each of RCP-1 to RCP-11, RCP-21, RCP-25, and RCP-26 as control, human vitronectin (extracted from human serum, BD Biosciences), and recombinant laminin (rLaminin-5: Oriental Yeast Co., ltd. and Human Recombinant Laminin-511: BIOLAMINA AB) was added to and suspended in a predetermined buffer (a dialysis buffer used in <GRAVY value and aggregation characteristics> described above for RCP-1 to RCP-11, and PBS for RCP-21, RCP-25, human vitronectin, and recombinant laminin) at the concentration shown in Table 7, thereby preparing samples 1 to 17. The samples were added to the respective wells of a 96-well plate and adsorbed onto the plate by being held for 2 hours at 37° C.
Into the respective wells of the 96-well plate treated with the peptides, iPS cells were seeded at a cell density of 30,000 cells/well. After the cells were cultured for 24 hours, the nonadhesive cells were washed off with PBS, and only the adhesive cells were immobilized by using 4% (v/v) paraformaldehyde (Wako Pure Chemical Industries, Ltd.). By using an Attophos (registered trademark) AP Fluorescent Substrate System (Promega Corporation), the ALP activity was calculated, and from the calibration curve, the number of undifferentiated iPS cells having the ALP activity was calculated. In Table 7, the cell adhesion rate is expressed as a ratio calculated by regarding the cell adhesion rate obtained from the sample 15 using natural vitronectin as being 100%. n=3.

Substance | adhesion of cells to the natural vitronectin on addition of peptide [1] | Cell adhesion rate (%) [1] [%] | further results
CCTDYTAECKPQVTRGDVFT (Peptide designed for comparative tests (Peptide-5)) | significantly hindered | 70.5 ± 7.1 | –
CCTDYTAECKPQVTRGEVFT (Peptide designed for comparative tests (Peptide-7)) | not hindered | 86.7 ± 7.1 | –
DKKCQCDELCSYYQSCCTDY (Peptide designed for comparative tests (Peptide-4)) | significantly hindered | 63.8 ± 11.6 | –
DQESCKGRCTEGFNVDKKCQ (Peptide designed for comparative tests (Peptide-1)) | not hindered | 91.8 ± 1.2 | –
EGFNVDKKCQCDELCSYYQS (Peptide designed for comparative tests (Peptide-3)) | not hindered | 102.5 ± 4.2 | –
KGRCTEGFNVDKKCQCDELC (Peptide designed for comparative tests (Peptide-2)) | not hindered | 92.7 ± 19.6 | –
Laminin-511: recombinant laminin (Human Recombinant Laminin-511: BIOLAMINA AB) | – | – | cell growth properties with Essential 8 or NutriStem not containing 2-mercaptoethanol versus media containing it ([2]; Table 11): a clear correlation could not be confirmed; Cell growth rate ([2]; medium Essential8, 2-mercaptoethanol 0): 45.9%; Cell growth rate ([2]; medium NutriStem, 2-mercaptoethanol 0): 98.8%; Cell growth rate ([2]; medium ReproFF2, 2-mercaptoethanol 102.4 μM (0.0008% by mass)): 93.9%; Cell growth rate ([2]; medium StemPro hESC SFM, 2-mercaptoethanol 100 μM (0.00078% by mass)): 103.7%; Cell growth rate ([2]; medium TeSR2, 2-mercaptoethanol 48.6 μM (0.00038% by mass)): 14.4%; Cell growth rate ([3]; Essential8, 2-mercaptoethanol 0): 45.9%; Cell growth rate ([3]; Essential8, 2-mercaptoethanol 10 μM (0.0000078% by mass)): 48.6%; Cell growth rate ([3]; Essential8, 2-mercaptoethanol 10 μM (0.000078% by mass)): 48.1%; Cell growth rate ([3]; Essential8, 2-mercaptoethanol 100 μM (0.00078% by mass)): 44.6%; Cell growth rate ([3]; Essential8, 2-mercaptoethanol 1 mM (0.0078% by mass)): 40.9%; Cell growth rate ([3]; Essential8, 2-mercaptoethanol 10 mM (0.078% by mass)): 39.3%; dependence of cell growth properties on the concentration of 2-mercaptoethanol ([3]; Table 12): such characteristics were not observed; Number of cells after 3 days (%) [4]: 56.8%; Cell adhesion rate (%) ([5]; added amount 5.0 μg/cm^2): 142.0%
TAECKPQVTRGDVFTMPEDE (Peptide designed for comparative tests (Peptide-6)) | significantly hindered | 52.7 ± 10.3 | –
TAECKPQVTRGEVFTMPEDE (Peptide designed for comparative tests (Peptide-8)) | not hindered | 83.8 ± 14.8 | –
rLaminin-5: recombinant laminin (rLaminin-5: Oriental Yeast Co., ltd.) | – | – | Cell adhesion rate (%) ([5]; added amount 3.2 μg/cm^2): 155.7%
